The source of these data is ChEMBL document CHEMBL1201862, “PubChem BioAssay data set” (2004).

Activity calls are given as the source filed them. Some results are limits rather than exact numbers.

Series [1] addresses Cytochrome P450 3A4 (Homo sapiens, UniProt P08684).
Series [2] deals with Cytochrome P450 2D6 (Homo sapiens, UniProt P10635).
Series [3] has as its target T1, Low molecular weight phosphotyrosine protein phosphatase (Homo sapiens, UniProt P24666).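 Further: Dose-response confirmation assay measuring inhibition of LMPTP enzyme activity by fluorescence intensity read-out.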
T1 sequence (P24666 whole entry): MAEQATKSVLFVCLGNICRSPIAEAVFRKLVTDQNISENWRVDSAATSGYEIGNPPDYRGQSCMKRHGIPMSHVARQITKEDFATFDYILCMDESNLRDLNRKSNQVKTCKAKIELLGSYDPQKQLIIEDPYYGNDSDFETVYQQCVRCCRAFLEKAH
It counts as functional. The conditions noted are these: read-out: IC50_Mean.

The subject of series [4] is Escherichia coli. The experiment in a line: microbe, parasite or virus in culture.
The nature of series [5]: insulin promoter down-regulators in MIN6 cells, imaging, high-content screening, mouse beta cells (AID 1628). It counts as functional.
Series [6] in a line: cytotoxicity in MIN6 insulinoma cells, dose response, cytotoxicity control, cell-based, mouse insulinoma (AID 2122).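 Further: confirmatory high-throughput counterscreen run to flag cytotoxic compounds; mouse MIN-6 beta cells carrying an insulin promoter eGFP reporter.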 It counts as functional.
Series [7] is described as follows: Luminescence Cell-Based Dose Response HTS to Identify Activators of Luciferase Translation or Activity in H4 […] Cells. [Related pubchem assays: 1829 (Project Summary), 1814 (Primary HTS)]. It counts as functional.
For series [8], the system named is H4. Kind of series: Luminescence Cell-Based Dose Response HTS to Identify Activators of 5'UTR Stem-Loop Driven Prion Protein mRNA Translation in H4 Neuroglioblastoma Cells. [Related pubchem assays: 1829 (Project Summary), 1814 (Primary HTS)]. It counts as functional. As to conditions: Homo sapiens.
Series [9] in a line: Luminescence Cell-Based Dose Confirmation HTS to Identify Activators of 5'UTR Stem-Loop Driven Alpha-Synuclein mRNA Translation in H4 Neuroglioblastoma Cells. [Related pubchem assays: 1829 (Project Summary), 1814 (Primary HTS)]. It counts as functional.
Series [10] is described as follows: cells.
Series [11] can be described thus: HEp-2 cell cytotoxicity, dose response, cytotoxicity control for RSV inhibitor project, HTS (AID 2410). As to conditions: human respiratory syncytial virus. It counts as functional.
In series [12] the test system is Vero. Kind of series: cells. It counts as functional, cell-based. The conditions noted are these: Chlorocebus sabaeus.
Series [13] has as its system Vero. The experiment in a line: cells. It counts as functional. As to conditions: Chlorocebus sabaeus.
In series [14] the target is T2, CAAX prenyl protease 2 (Homo sapiens, UniProt Q9Y256).
T2 sequence (Q9Y256 whole entry): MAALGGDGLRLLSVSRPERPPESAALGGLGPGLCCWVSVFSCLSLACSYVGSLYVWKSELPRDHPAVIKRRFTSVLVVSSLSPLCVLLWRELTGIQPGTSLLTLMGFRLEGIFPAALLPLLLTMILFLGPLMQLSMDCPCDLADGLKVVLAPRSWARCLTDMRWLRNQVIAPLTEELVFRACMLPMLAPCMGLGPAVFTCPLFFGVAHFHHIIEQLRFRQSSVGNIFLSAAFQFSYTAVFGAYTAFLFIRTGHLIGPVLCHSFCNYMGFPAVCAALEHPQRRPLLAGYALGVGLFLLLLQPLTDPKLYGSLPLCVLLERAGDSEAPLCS
The experiment in a line: human Rce1 protease inhibitors, dose response, biochemical, yeast membranes, quenched-peptide fluorescence, cherry-pick (AID 588849).

A short description of series [15]: control 3'UTR Renilla luciferase suppression, dose response, counter-screen for Shn3 inhibitor project, cell-based, Clone20-Shn3RL, cherry-picked (AID 624133). It counts as functional.
In series [16] the test system is INS1. Kind of series: beta cell apoptosis inhibitors, cytokine rescue, dose response, luminescence, retest (AID 449756).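 Further: cell death triggered by IL-1 beta plus TNF-alpha plus IFN-gamma mixture; protective hits raise ATP signal compared with cytokine alone wells.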 It counts as functional, cell-based. As to conditions: Rattus norvegicus.
For series [17], the system named is Streptococcus. The experiment in a line: Group A Streptococcus viability loss, dose response, counter-screen for streptokinase expression inhibitor project, luminescence, BacTiterGlo (AID 1915).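 Further: potency for reduction of bacterial viability or growth.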 It counts as functional, organism-based.
Series [18] concerns the target T3, Streptokinase A (Streptococcus pyogenes serotype M1, UniProt P10520).
T3 sequence (P10520 whole entry): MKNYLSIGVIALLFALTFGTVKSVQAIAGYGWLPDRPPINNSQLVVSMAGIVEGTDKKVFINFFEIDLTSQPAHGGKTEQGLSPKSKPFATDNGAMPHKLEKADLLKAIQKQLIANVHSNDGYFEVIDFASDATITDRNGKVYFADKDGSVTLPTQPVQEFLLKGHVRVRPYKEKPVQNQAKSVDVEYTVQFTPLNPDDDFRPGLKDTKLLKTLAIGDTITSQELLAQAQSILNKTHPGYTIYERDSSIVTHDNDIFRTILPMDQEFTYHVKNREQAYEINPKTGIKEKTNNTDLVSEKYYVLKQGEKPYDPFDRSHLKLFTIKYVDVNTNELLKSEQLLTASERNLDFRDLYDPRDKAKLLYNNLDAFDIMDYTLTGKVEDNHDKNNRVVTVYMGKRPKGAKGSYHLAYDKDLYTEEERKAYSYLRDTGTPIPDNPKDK
Kind of series: S. pyogenes streptokinase expression inhibitors, potency, dose response, plasminogen activation absorbance, OD405 (AID 1914).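 Further: secreted streptokinase activity via plasminogen activation per viability signal from cell pellet.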 It counts as functional, Streptococcus pyogenes M1 GAS.

Series [19] can be described thus: HepG2 cell cytotoxicity, dose response, cytotoxicity control for Shn3 inhibitor project, CellTiter-Glo, cherry-picked (AID 624134). It counts as functional, cell-based.
In series [20] the test system is Streptococcus sp. 'group A'. Kind of series: growth inhibition of control SK(-) GAS strain, dose response, counter-screen for streptokinase expression inhibitor project, luminescence, kanamycin, BacTiterGlo, confirmation (AID 1900). It counts as functional, organism-based.
A short description of series [21]: Shn3 3'UTR reporter inhibitors, dose response, cell-based, Clone20 osteoblasts, firefly luciferase, cherry-picked (AID 624132).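 Further: firefly luciferase luminescence from reporter carrying the Shn3 3'UTR in osteoblasts.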 It counts as functional.
In series [22] the target is T4, Phosphoethanolamine/phosphocholine phosphatase (Homo sapiens, UniProt Q8TCT1).
T4 sequence (Q8TCT1 whole entry): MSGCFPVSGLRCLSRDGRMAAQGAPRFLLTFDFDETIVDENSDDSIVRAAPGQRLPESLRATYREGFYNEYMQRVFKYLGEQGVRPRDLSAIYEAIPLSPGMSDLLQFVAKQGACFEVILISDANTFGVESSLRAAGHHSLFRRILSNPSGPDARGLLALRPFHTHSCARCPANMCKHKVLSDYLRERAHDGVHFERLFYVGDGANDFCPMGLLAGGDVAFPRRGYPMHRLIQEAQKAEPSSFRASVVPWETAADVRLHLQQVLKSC
The experiment in a line: SAR assay for compounds that inhibit PHOSPHO1. [Related pubchem assays (depositor defined):AID1545, AID1565, AID1574].

In series [23] the target is T5, Mannose-6-phosphate isomerase (Homo sapiens, UniProt P34949).
T5 sequence (P34949 whole entry): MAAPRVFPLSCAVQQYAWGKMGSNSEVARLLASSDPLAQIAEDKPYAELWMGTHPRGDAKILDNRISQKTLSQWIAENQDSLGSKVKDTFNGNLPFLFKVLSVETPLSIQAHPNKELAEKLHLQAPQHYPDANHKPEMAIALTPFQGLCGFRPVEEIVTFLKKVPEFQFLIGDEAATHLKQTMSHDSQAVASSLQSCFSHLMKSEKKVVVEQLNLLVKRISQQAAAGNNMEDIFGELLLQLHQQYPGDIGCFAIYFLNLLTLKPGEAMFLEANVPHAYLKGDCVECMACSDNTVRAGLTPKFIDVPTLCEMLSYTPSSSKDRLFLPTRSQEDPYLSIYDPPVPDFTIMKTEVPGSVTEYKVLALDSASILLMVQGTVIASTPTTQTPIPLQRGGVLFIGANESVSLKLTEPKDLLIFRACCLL
Kind of series: PMI enzyme inhibitors, confirmation, biochemical, fluorescence intensity (AID 1535).

Series [24] concerns the target T6, Phosphomannomutase 2 (Homo sapiens, UniProt O15305).
T6 sequence (O15305 whole entry): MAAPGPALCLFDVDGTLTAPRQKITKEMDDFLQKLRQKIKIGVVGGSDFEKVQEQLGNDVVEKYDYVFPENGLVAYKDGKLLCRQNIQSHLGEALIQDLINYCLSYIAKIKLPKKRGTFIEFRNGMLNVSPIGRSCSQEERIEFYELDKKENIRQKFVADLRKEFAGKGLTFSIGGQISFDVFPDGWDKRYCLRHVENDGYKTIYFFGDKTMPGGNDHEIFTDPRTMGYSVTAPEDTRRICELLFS
Kind of series: Counter screen SAR assay for PMM2 inhibitors via a fluorescence intensity assay. [Related pubchem assays (depositor defined):AID1545, AID1574].

The target of series [25] is T7, Cytochrome P450 1A2 (Homo sapiens, UniProt P05177).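 Further: PubChem cytochrome P450 panel assay, CYP1A2 panel member.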
T7 sequence (P05177 whole entry): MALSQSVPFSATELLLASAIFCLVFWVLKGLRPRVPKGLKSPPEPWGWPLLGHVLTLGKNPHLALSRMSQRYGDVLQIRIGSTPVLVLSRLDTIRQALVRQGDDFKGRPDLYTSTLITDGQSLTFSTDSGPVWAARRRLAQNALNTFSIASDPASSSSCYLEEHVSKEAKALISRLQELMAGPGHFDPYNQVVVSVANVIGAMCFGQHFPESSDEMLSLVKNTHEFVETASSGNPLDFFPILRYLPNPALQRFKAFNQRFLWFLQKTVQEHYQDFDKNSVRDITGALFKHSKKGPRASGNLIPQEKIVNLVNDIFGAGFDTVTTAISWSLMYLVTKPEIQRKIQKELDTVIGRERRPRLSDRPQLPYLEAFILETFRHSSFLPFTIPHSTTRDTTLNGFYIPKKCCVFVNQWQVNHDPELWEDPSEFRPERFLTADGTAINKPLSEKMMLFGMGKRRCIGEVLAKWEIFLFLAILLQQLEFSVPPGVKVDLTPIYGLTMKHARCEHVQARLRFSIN

Chain of Cytochrome P450 3A4 (P08684 whole entry): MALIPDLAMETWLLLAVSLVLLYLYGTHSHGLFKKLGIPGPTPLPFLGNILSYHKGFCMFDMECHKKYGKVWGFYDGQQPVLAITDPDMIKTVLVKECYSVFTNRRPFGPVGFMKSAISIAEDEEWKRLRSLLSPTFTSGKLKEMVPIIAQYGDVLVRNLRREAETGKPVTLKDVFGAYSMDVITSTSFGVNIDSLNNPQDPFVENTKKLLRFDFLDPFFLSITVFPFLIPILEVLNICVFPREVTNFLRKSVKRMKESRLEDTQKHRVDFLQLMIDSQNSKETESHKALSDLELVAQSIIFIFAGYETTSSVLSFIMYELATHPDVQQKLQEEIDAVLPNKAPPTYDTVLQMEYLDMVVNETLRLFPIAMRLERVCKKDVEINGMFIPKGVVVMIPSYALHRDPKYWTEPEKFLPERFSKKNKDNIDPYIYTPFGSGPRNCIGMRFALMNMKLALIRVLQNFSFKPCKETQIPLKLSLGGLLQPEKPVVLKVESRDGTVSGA
Chain of Cytochrome P450 2D6 (P10635 whole entry): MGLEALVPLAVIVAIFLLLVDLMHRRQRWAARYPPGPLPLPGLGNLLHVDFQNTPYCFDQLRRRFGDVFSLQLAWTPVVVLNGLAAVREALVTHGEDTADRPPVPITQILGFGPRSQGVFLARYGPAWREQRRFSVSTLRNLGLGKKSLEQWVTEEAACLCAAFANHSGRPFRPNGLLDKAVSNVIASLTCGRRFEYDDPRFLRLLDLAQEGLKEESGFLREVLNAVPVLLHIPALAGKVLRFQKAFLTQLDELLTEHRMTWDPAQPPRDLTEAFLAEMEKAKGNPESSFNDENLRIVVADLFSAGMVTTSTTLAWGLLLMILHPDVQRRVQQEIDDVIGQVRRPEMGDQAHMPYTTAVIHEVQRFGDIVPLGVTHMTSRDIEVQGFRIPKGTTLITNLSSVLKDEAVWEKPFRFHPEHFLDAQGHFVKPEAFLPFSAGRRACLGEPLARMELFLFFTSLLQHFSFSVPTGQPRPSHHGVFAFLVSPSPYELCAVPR

Consider `Cn1cccc1C(=O)N1CCC2(CCN(Cc3nccs3)CC2)CC1`, for which the AC50 entry in series [1] is listed as “inconclusive”.

`O=C(Oc1ccccc1)N1CCC2(CCN(Cc3ccccc3)CC2)CC1`: the AC50 in [2] is 39.8 µM (inconclusive); in [1], “inconclusive”.

In the case of `CCn1cc(C(=O)O)c(=O)c2cc(F)c(N3CCN(C(=S)NC(=O)c4ccc(OC)cc4)CC3)cc21`, in series [3], the IC50 is 7.26 µM (active). In [4], the half-maximal activity concentration (AC50) was 8.97 µM (active).

Take `Cc1cc(C(=O)CSc2nc3cc(Cl)ccc3[nH]2)c(C)n1CC1CCCO1` (centres undefined): the IC50 in [5] is 2.74 µM (active); in series [6], 2.99 µM (active).

Turning to `NS(=O)(=O)c1ccc(N/N=C/c2cn(-c3ccccc3)nc2-c2ccccc2)c([N+](=O)[O-])c1`, the IC50 is 1.05 µM (active) in series [5] and 3.46 µM (active) in series [6]. In addition, the concentration giving a half-maximal response (EC50) was > 60 µM (not active) in series [7], > 120 µM (not active) in [8] and > 120 µM (not active) in series [9].

For the molecule `Cc1ccn(C(=O)c2ccc(NC(=O)C3CC3)cc2)n1`, the half-maximal activity concentration (AC50) in series [4] is 22.3 µM (active).

In the case of `Cc1cccc(NC(=O)CSc2nc3ccccc3nc2N2CCCCC2)c1`, the IC50 was 9 µM (active) in [10] and 9.16 µM (active) in series [12]. The cytotoxic concentration (CC50) in [11] is 10.3 µM (active); in series [13] it was > 25 µM (active).

In the case of `COC(C/C=C/[C@@H](O)[C@H](C)OCc1ccccc1)OC`, in series [14], the AC50 is 16.5 µM (active).

`CC1=NN(c2nc3ccccc3[nH]2)C(=O)C1Cc1ccccc1` (centres undefined): the half-maximal activity concentration (AC50) in series [15] was 2.6 µM (active); in series [16], 1.43 µM (active); in series [19] it was > 70 µM (inactive); in [21], 4.11 µM (active). Besides, the values for the IC50 in [5] and in series [6] were 1.53 µM (active) and 1.43 µM (active), respectively. Besides, the 50% effective concentration (EC50) is > 150 µM (not active) in series [17], > 150 µM (not active) in series [18] and 1.17 µM (active) in series [20]. Besides, the CC50 in series [13] was 2.92 µM (active).

Take `CC(=O)/C(C#N)=C1\NC(=O)C(Cc2ccccc2)S1` (centres undefined): the IC50 in [10] was 5.09 µM (active); in [12], 9.17 µM (active). In addition, the CC50 in series [11] is 14.4 µM (active).

As to `O=c1c2ccccc2sn1-c1ccc(S(=O)(=O)N2CCOCC2)cc1`, the IC50 in series [22] is 0.545 µM (active); in [23], > 50 µM (inactive); in series [24], > 100 µM (inactive).

As for `[N-]=[N+]=Nc1cc([N+](=O)[O-])cc2sn(-c3ccccc3)c(=O)c12`, the IC50 in series [22] is 0.498 µM (active); in series [23] it was > 50 µM (inactive); in series [24], 96.4 µM (active).

As to `O=C(c1cnccn1)N1CCC2(CC1)CCN(C(c1ccccc1)c1ccccc1)CC2`, the figures for the half-maximal activity concentration (AC50) entry in series [1] and in [25] were “inconclusive” and 10 µM (inconclusive), respectively.
